Laboratory results reported in ChEMBL document CHEMBL1121374, “Analgesic narcotic antagonists. 4. 7-Methyl-N-(cycloalkylmethyl)-3-hydroxymorphinan-6-ones and -isomorphinan-6-ones” (1980).
Calls of active or inactive are those of the source. The calls are words filed in the database; no cut-off is given here.

Legend:
Rattus norvegicus [1] = assay: Antagonist activity in rat tail flick assay by intraperitoneal administration; type: functional
Mus musculus [2] = assay: Compound was tested for analgesia in mouse writhing assay by subcutaneous administration; type: functional
Rattus norvegicus [3] = assay: Antagonist activity in rat tail flick assay by subcutaneous administration; type: functional
Rattus norvegicus [4] = species on record: Rattus norvegicus; assay: Ratio of agonist potency to antagonist potency was determined; type: functional
Mus musculus [5] = assay: Compound was tested for analgesia in mouse writhing assay by subcutaneous administration; IA means inactive; type: functional, organism-based
Rattus norvegicus [6] = assay: Compound was tested for antagonist in rat tail flick assay by intraperitoneal administration at dose 25 umol/kg; IA means inactive; type: functional, organism-based
Mus musculus [7] = assay: Compound was tested for analgesia in mouse writhing assay by subcutaneous administration short duration at 5 min; type: functional; conditions: sc
Rattus norvegicus [8] = assay: Compound was tested for antagonist in rat tail flick assay by subcutaneous administration at dose 27 umol/kg; IA means inactive; type: functional, organism-based
Rattus norvegicus [9] = assay: Compound was tested for antagonist in rat tail flick assay by subcutaneous administration at dose 29 umol/kg; IA means inactive; type: functional, organism-based
Rattus norvegicus [10] = assay: Compound was tested for antagonist in rat tail flick assay by subcutaneous administration at dose 33 umol/kg; IA means inactive; type: functional, organism-based
[11] = Rattus norvegicus, Tail, ip, read-out: ED50
[12] = Mus musculus, sc, read-out: ED50
[13] = Rattus norvegicus, Tail, sc, read-out: ED50

Structure (SMILES)	ED50 (Rattus norvegicus [1]; [11]) [µmol/kg]	ED50 (Mus musculus [2]; [12]) [µmol/kg]	ED50 (Mus musculus [2]) [µM/kg]	also measured
CC[C@H]1[C@H](C)C(=O)CC23CCN(CC4CCC4)C(Cc4ccc(OC)cc42)[C@H]13 (some centres not stated)	> 24	18.7	–	–
C[C@H]1C[C@H]2C3Cc4ccc(O)cc4C2(CCN3C)CC1=O (stereo in doubt; 7C)	–	–	0.52	ED50 (Rattus norvegicus [3]): 70 µM/kg
CN1CC[C@]23c4c5ccc(O)c4O[C@H]2C(=O)CC[C@H]3[C@H]1C5 [HYDROMORPHONE]	–	–	–	ED50 (Rattus norvegicus [3]; [13]): 1.34 µmol/kg
CC(C)=CCN1CC[C@]2(C)c3cc(O)ccc3C[C@H]1[C@H]2C [(+)-PENTAZOCINE]	36.4	12.9	–	Ratio (Rattus norvegicus [4]): 0.36
C[C@H]1C[C@H]2C3Cc4ccc(O)cc4C2(CCN3CC2CCC2)CC1=O (stereo in doubt; 13C) [listing 1 of 2 here]	–	–	0.047	–
COc1ccc2c(c1)C13CCN(CC4CCC4)C(C2)[C@@H]1C[C@H](C)C(=O)C3 (some centres not stated) [listing 1 of 2 here]	–	–	0.58	–
C[C@H]1[C@H](C)C(=O)CC23CCN(CC4CCC4)C(Cc4ccc(O)cc42)[C@H]13 (some centres not stated)	5.66	2.21	–	Ratio (Rattus norvegicus [4]): 0.4
CC[C@@H]1[C@@H](C)C(=O)CC23CCN(CC4CCC4)C(Cc4ccc(OC)cc42)[C@@H]13 (some centres not stated)	> 25	> 25	–	–
COc1ccc2c(c1)C13CCN(CC4CC4)C(C2)[C@H]1[C@H](C)[C@@H](C)C(=O)C3 (some centres not stated)	> 26	> 26	–	–
C[C@@H]1[C@@H](C)C(=O)CC23CCN(C)C(Cc4ccc(O)cc42)[C@@H]13 (some centres not stated)	–	0.58	–	ED50 (Rattus norvegicus [3]; [13]): 0.68 µmol/kg
COc1ccc2c(c1)C13CCN(C)C(C2)[C@@H]1C[C@H](C)C(=O)C3 (stereo in doubt; 6C a)	–	–	0.5	ED50 (Rattus norvegicus [3]): 1.6 µM/kg
CC[C@H]1[C@H](C)C(=O)CC23CCN(CC4CC4)C(Cc4ccc(O)cc42)[C@H]13 (some centres not stated)	2.23	> 25	–	–
C[C@H]1[C@H](C)C(=O)CC23CCN(C)C(Cc4ccc(O)cc42)[C@H]13 (some centres not stated)	–	0.4	–	ED50 (Rattus norvegicus [3]; [13]): 12.4 µmol/kg
C[C@H]1C[C@H]2C3Cc4ccc(O)cc4C2(CCN3CC2CC2)CC1=O (stereo in doubt; 12C)	7.4	3.28	–	Ratio (Rattus norvegicus [4]): 0.44
CC[C@@H]1[C@@H](C)C(=O)CC23CCN(CC4CCC4)C(Cc4ccc(O)cc42)[C@@H]13 (some centres not stated)	> 25	> 25	–	–
COc1ccc2c3c1O[C@H]1C(=O)CC[C@H]4[C@@H](C2)N(C)CC[C@]314 [HYDROCODONE]	–	2.36	–	ED50 (Rattus norvegicus [3]; [13]): 5.2 µmol/kg
C=CCN1CC[C@]23c4c5ccc(O)c4O[C@H]2C(=O)CC[C@@]3(O)[C@H]1C5 [NALOXONE]	–	–	–	ED50 (Mus musculus [5]): inactive
COc1ccc2c(c1)C13CCN(C)C(C2)[C@H]1C[C@@H](C)C(=O)C3 (stereo in doubt; 6T a) [listing 1 of 2 here]	–	–	15.7	–
C[C@@H]1[C@@H](C)C(=O)CC23CCN(CC4CCC4)C(Cc4ccc(O)cc42)[C@@H]13 (some centres not stated)	> 25	0.79	–	–
COc1ccc2c(c1)C13CCN(CC4CCC4)C(C2)[C@H]1C[C@@H](C)C(=O)C3 (some centres not stated)	–	–	20.3	–

Structure (SMILES)	ED50 (Rattus norvegicus [1]; [11]) [µmol/kg]	ED50 (Mus musculus [2]; [12]) [µmol/kg]	ED50 (Mus musculus [2]) [µM/kg]	also measured
C[C@@H]1[C@@H](C)C(=O)CC23CCN(CC4CC4)C(Cc4ccc(O)cc42)[C@@H]13 (some centres not stated)	1.02	4.5	–	Ratio (Rattus norvegicus [4]): 4.4
COc1ccc2c(c1)C13CCN(CC4CC4)C(C2)[C@@H]1C[C@H](C)C(=O)C3 (some centres not stated)	–	–	0.66	ED50 (Rattus norvegicus [1]): 14.9 µM/kg; Ratio (Rattus norvegicus [4]): 0.04
C[C@@H]1C[C@@H]2C3Cc4ccc(O)cc4C2(CCN3CC2CCC2)CC1=O (stereo in doubt; 13T a)	–	–	0.93	ED50 (Rattus norvegicus [1]): >24 µM/kg
COc1ccc2c(c1)C13CCN(CC4CCC4)C(C2)[C@@H]1C[C@H](C)C(=O)C3.Cl (some centres not stated)	> 25	–	3.58	–
C[C@H]1C[C@H]2C3Cc4ccc(O)cc4C2(CCN3CC2CCC2)CC1=O (stereo in doubt; 13C a)	> 30	–	0.35	–
COc1ccc2c(c1)C13CCN(CC4CCC4)C(C2)[C@@H]1C[C@H](C)C(=O)C3 (some centres not stated) [listing 2 of 2 here]	–	–	–	ED50 (Rattus norvegicus [6]): inactive
C[C@@H]1C[C@@H]2C3Cc4ccc(O)cc4C2(CCN3CC2CC2)CC1=O (stereo in doubt; 12T a)	–	–	–	ED50 (Mus musculus [7]): 1.77 µmol/kg; ED50 (Rattus norvegicus [1]): 1.18 µM/kg; Ratio (Rattus norvegicus [4]): 1.5
C[C@H]1[C@H]2Cc3ccc(O)cc3[C@]1(C)CCN2CC1CC1 [CYCLAZOCINE]	0.81	0.41	–	Ratio (Rattus norvegicus [4]): 0.5
COc1ccc2c(c1)C13CCN(CC4CC4)C(C2)[C@H]1C[C@@H](C)C(=O)C3 (some centres not stated)	3.6	> 25	–	–
Oc1ccc2c(c1)[C@@]13CCCC[C@@]1(O)[C@@H](C2)N(CC1CCC1)CC3 [BUTORPHANOL]	2	0.34	–	Ratio (Rattus norvegicus [4]): 0.17
COc1ccc2c(c1)C13CCN(C)C(C2)[C@@H]1C[C@H](C)C(=O)C3 (stereo in doubt; 6C)	–	–	1.72	ED50 (Rattus norvegicus [3]; [13]): 2.32 µmol/kg
COc1ccc2c(c1)C13CCN(C)C(C2)[C@@H]1[C@@H](C)[C@H](C)C(=O)C3 (some centres not stated)	–	2.16	–	ED50 (Rattus norvegicus [3]; [13]): 17.9 µmol/kg
COc1ccc2c(c1)C13CCN(CC4CC4)C(C2)[C@@H]1C[C@H](C)C(=O)C3.Cl (some centres not stated)	–	–	1.6	ED50 (Rattus norvegicus [1]): 42.6 µM/kg; Ratio (Rattus norvegicus [4]): 0.04
CC[C@H]1[C@H](C)C(=O)CC23CCN(CC4CCC4)C(Cc4ccc(O)cc42)[C@H]13 (some centres not stated)	4.84	8.19	–	Ratio (Rattus norvegicus [4]): 1.7
C[C@@H]1C[C@@H]2C3Cc4ccc(O)cc4C2(CCN3C)CC1=O (stereo in doubt; 7T a)	–	–	0.91	ED50 (Rattus norvegicus [3]): 1.09 µM/kg
CC[C@@H]1[C@@H](C)C(=O)CC23CCN(C)C(Cc4ccc(O)cc42)[C@@H]13 (some centres not stated)	–	7.53	–	ED50 (Rattus norvegicus [3]; [13]): 7.45 µmol/kg
C[C@H]1[C@H](C)C(=O)CC23CCN(CC4CC4)C(Cc4ccc(O)cc42)[C@H]13 (some centres not stated)	0.35	23	–	Ratio (Rattus norvegicus [4]): 65
CN1CC[C@]23c4c5ccc(O)c4O[C@H]2[C@@H](O)C=C[C@H]3[C@H]1C5 [MORPHINE]	–	–	–	ED50 (Rattus norvegicus [3]; [13]): 19.3 µmol/kg
COc1ccc2c(c1)C13CCN(CC4CCC4)C(C2)[C@@H]1[C@@H](C)[C@H](C)C(=O)C3 (some centres not stated)	> 25	15.8	–	–
COc1ccc2c(c1)C13CCN(C)C(C2)[C@H]1C[C@@H](C)C(=O)C3 (stereo in doubt; 6T)	–	–	5.54	ED50 (Rattus norvegicus [3]; [13]): > 70 µmol/kg

Structure (SMILES)	ED50 (Rattus norvegicus [1]; [11]) [µmol/kg]	ED50 (Mus musculus [2]; [12]) [µmol/kg]	ED50 (Mus musculus [2]) [µM/kg]	also measured
CC[C@@H]1[C@@H](C)C(=O)CC23CCN(C)C(Cc4ccc(OC)cc42)[C@@H]13 (some centres not stated)	–	7.42	–	ED50 (Rattus norvegicus [8]): inactive
C[C@@H]1C[C@@H]2C3Cc4ccc(O)cc4C2(CCN3CC2CCC2)CC1=O (stereo in doubt; 13T)	13.8	–	2.6	Ratio (Rattus norvegicus [4]): 0.2
CC[C@H]1[C@H](C)C(=O)CC23CCN(CC4CC4)C(Cc4ccc(OC)cc42)[C@H]13.Cl (some centres not stated)	15.7	8.04	–	Ratio (Rattus norvegicus [4]): 0.51
COc1ccc2c(c1)C13CCN(CC4CC4)C(C2)[C@H]1C[C@@H](C)C(=O)C3.Cl (some centres not stated)	–	–	>40	ED50 (Rattus norvegicus [1]): 3.19 µM/kg
COc1ccc2c(c1)C13CCN(C)C(C2)[C@H]1[C@H](C)[C@@H](C)C(=O)C3 (some centres not stated)	–	3.72	–	ED50 (Rattus norvegicus [9]): inactive
CC[C@@H]1[C@@H](C)C(=O)CC23CCN(CC4CC4)C(Cc4ccc(O)cc42)[C@@H]13 (some centres not stated)	> 25	> 25	–	–
COc1ccc2c(c1)C13CCN(CC4CCC4)C(C2)[C@H]1C[C@@H](C)C(=O)C3.Cl (some centres not stated)	> 38	–	7.31	–
CC[C@H]1[C@H](C)C(=O)CC23CCN(C)C(Cc4ccc(O)cc42)[C@H]13 (some centres not stated)	–	0.14	–	ED50 (Rattus norvegicus [3]; [13]): 1.5 µmol/kg
C[C@@H]1C[C@@H]2C3Cc4ccc(O)cc4C2(CCN3CC2CC2)CC1=O (stereo in doubt; 12T)	2.24	8.9	–	Ratio (Rattus norvegicus [4]): 4
C[C@H]1C[C@H]2C3Cc4ccc(O)cc4C2(CCN3CC2CCC2)CC1=O (stereo in doubt; 13C) [listing 2 of 2 here]	–	–	–	ED50 (Rattus norvegicus [6]): inactive
COc1ccc2c(c1)C13CCN(CC4CCC4)C(C2)[C@H]1[C@H](C)[C@@H](C)C(=O)C3 (some centres not stated)	> 25	> 25	–	–
C[C@@H]1C[C@@H]2C3Cc4ccc(O)cc4C2(CCN3C)CC1=O (stereo in doubt; 7T)	–	0.75	–	ED50 (Rattus norvegicus [3]; [13]): 1.33 µmol/kg
C=CCN1CC[C@]23c4c5ccc(O)c4O[C@H]2[C@@H](O)C=C[C@H]3[C@H]1C5 [NALORPHINE]	2.47	3.51	–	Ratio (Rattus norvegicus [4]): 1.42
C[C@H]1C[C@H]2C3Cc4ccc(O)cc4C2(CCN3CC2CC2)CC1=O (stereo in doubt; 12C a)	–	–	2.4	ED50 (Rattus norvegicus [1]): 14.4 µM/kg; Ratio (Rattus norvegicus [4]): 0.17
COc1ccc2c3c1O[C@H]1[C@@H](O)C=C[C@H]4[C@@H](C2)N(C)CC[C@@]341 [CODEINE]	–	10.2	–	ED50 (Rattus norvegicus [3]; [13]): 75 µmol/kg
COc1ccc2c(c1)C13CCN(CC4CC4)C(C2)[C@@H]1[C@@H](C)[C@H](C)C(=O)C3.Cl (some centres not stated)	12.1	2.64	–	Ratio (Rattus norvegicus [4]): 0.22
C[C@H]1C[C@H]2C3Cc4ccc(O)cc4C2(CCN3C)CC1=O (stereo in doubt; 7C a)	–	0.39	–	ED50 (Rattus norvegicus [3]): 1.82 µM/kg
CC[C@@H]1[C@@H](C)C(=O)CC23CCN(CC4CC4)C(Cc4ccc(OC)cc42)[C@@H]13 (some centres not stated)	> 25	> 25	–	–
COc1ccc2c(c1)C13CCN(C)C(C2)[C@H]1C[C@@H](C)C(=O)C3 (stereo in doubt; 6T a) [listing 2 of 2 here]	–	–	–	ED50 (Rattus norvegicus [10]): inactive
CC[C@H]1[C@H](C)C(=O)CC23CCN(C)C(Cc4ccc(OC)cc42)[C@H]13 (some centres not stated)	–	0.49	–	ED50 (Rattus norvegicus [3]; [13]): 2.75 µmol/kg
